The source of these data is patent US8067445B2, “N,N-disubstituted aminoalkylbiphenyl antagonists of prostaglandin D2 receptors” (Panmira Pharmaceuticals, LLC, priority 2008, dated 2011).

pIC50: −log10 of the molar value.

This assay has as its target T1, human DP1 receptor (Homo sapiens, UniProt Q13258).
T1 construct: tissue Biological Specialty Corporation; host or cells: human platelet membranes
T1 sequence (Q13258 1-359): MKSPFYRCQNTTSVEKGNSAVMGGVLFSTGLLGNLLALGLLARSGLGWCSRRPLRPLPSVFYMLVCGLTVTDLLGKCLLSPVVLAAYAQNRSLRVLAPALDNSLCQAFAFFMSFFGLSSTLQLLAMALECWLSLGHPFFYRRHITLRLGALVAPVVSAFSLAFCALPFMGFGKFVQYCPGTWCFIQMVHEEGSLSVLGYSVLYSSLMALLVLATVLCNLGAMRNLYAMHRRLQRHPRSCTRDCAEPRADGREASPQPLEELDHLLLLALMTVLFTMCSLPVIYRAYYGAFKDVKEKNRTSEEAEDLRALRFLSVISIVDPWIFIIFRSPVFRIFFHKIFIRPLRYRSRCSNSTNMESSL
In words: DP1 radioligand binding assay ([3H]BWA868C, platelet membranes). The conditions noted are these: [3H]BWA868C binding, human platelet membranes; read-out: hDP1. As to the method:
The ability of a compound to bind to the human DPI receptor was evaluated via a radioligand membrane binding assay using the DP1 selective synthetic ligand [^311]BWA868C. Packed human platelets (Biological Specialty Corporation), were resuspended in 6 volumes of Hepes/HBSS buffer (10 mM Hepes, 1 mM DTT in Hanks Balanced Salt Solution (HBSS)), lysed and centrifuged at 75,000×g to pellet the membranes. Membranes were resuspended in Hepes/HBSS buffer to approximately 12 mg protein/ml. Membranes (20 μg protein/well) are incubated in 96-well plates with 2 nM [^3H]BWA868C and test compound in Assay Buffer (50 mM Hepes, 10 mM MnCl2, 1 mM EDTA, plus or minus 0.2% human serum albumin, pH 7.4) for 60 minutes at room temperature. The reactions are terminated by rapid filtration through Whatman GF/C glass fibre filter plates. The filter plates were pre-soaked in 0.33% polyethylenimine for 30 minutes at room temperature then washed in Wash Buffer (50 mM Hepes, 0.5 M NaCl pH 7.4) prior to harvesting. After harvesting, the filter plates are washed 3 times with 1 ml cold Wash Buffer then dried. Scintillant is then added to the plates and the radioactivity retained on the filters is determined on a Packard TopCount (Perkin Elmer). Specific binding is determined as total radioactive binding minus non-specific binding in the presence of 10 μM BW A868C. IC50s were determined using GraphPad prism analysis of drug titration curves.
Regarding `CCN(Cc1cc(C(F)(F)F)ccc1-c1cc(CC(=O)O)ccc1OC)C(=O)OCc1ccc(Cl)cc1` [Compound 1-42, (2′-{[(4-Chloro-benzyloxycarbonyl)-ethyl-amino]-methyl}-6-methoxy-4′-trifluoromethyl-biphenyl-3-yl)-acetic acid], the pIC50 is 4.52 to 6.00.
The same measure for `CCN(Cc1cc(C(F)(F)F)ccc1-c1cc(CC(=O)O)ccc1OC)C(=O)OCc1cccc(Cl)c1` [Compound 1-43, (2′-{[(3-Chloro-benzyloxycarbonyl)-ethyl-amino]-methyl}-6-methoxy-4′-trifluoromethyl-biphenyl-3-yl)-acetic acid]: 4.52 to 6.00; for `CCN(Cc1cc(C(F)(F)F)ccc1-c1cc(CC(=O)O)ccc1OC)C(=O)OC(C)c1ccc(Cl)cc1` (stereo not shown) [Compound 1-44, [2′-({[1-(4-Chloro-phenyl)-ethoxycarbonyl]-ethyl-amino}-methyl)-6-methoxy-4′-trifluoromethyl-biphenyl-3-yl]-acetic acid]: 4.52 to 6.00.
The same measure for `CCN(Cc1cc(C(F)(F)F)ccc1-c1cc(CC(=O)O)ccc1OC)C(=O)C(C)Oc1ccccc1` (stereo not shown) [Compound 1-45, (2′-{[Ethyl-(2-phenoxy-propionyl)-amino]-methyl}-6-methoxy-4′-trifluoromethyl-biphenyl-3-yl)-acetic acid]: 4.52 to 6.00; for `CCN(Cc1cc(C(F)(F)F)ccc1-c1cc(CC(=O)O)ccc1OC)C(=O)COC` [Compound 1-46, (2′-{[Ethyl-(2-methoxy-acetyl)-amino]-methyl}-6-methoxy-4′-trifluoromethyl-biphenyl-3-yl)-acetic acid]: 4.52 to 6.00; for `CCN(Cc1cc(C(F)(F)F)ccc1-c1cc(CC(=O)O)ccc1OC)C(=O)COc1ccccc1` [Compound 1-48, (2′-{[Ethyl-(2-phenoxy-acetyl)-amino]-methyl}-6-methoxy-4′-trifluoromethyl-biphenyl-3-yl)-acetic acid]: 4.52 to 6.00.
The same measure for `CCN(Cc1cc(C(F)(F)F)ccc1-c1cc(CC(=O)O)ccc1OC)C(=O)COCc1ccccc1` [Compound 1-92, (2′-{[(2-Benzyloxy-acetyl)-ethyl-amino]-methyl}-6-methoxy-4′-trifluoromethyl-biphenyl-3-yl)-acetic acid]: 4.52 to 6.00.
With `CCN(Cc1cc(C(F)(F)F)ccc1-c1cc(CC(=O)O)ccc1OC)C(=O)COc1ccc(Cl)cc1` [Compound 1-93, [2′-({[2-(4-Chloro-phenoxy)-acetyl]-ethyl-amino}-methyl)-6-methoxy-4′-trifluoromethyl-biphenyl-3-yl]-acetic acid], the pIC50 was 4.52 to 6.00.
In the case of `CCN(Cc1ccccc1)C(=O)N(CC)Cc1cc(C(F)(F)F)ccc1-c1cc(CC(=O)O)ccc1OC` [Compound 1-94, [2′-(3-Benzyl-1,3-diethyl-ureidomethyl)-6-methoxy-4′-trifluoromethyl-biphenyl-3-yl]-acetic acid], the pIC50 is 4.52 to 6.00.
The value for `CCN(Cc1cc(C(F)(F)F)ccc1-c1cc(CC(=O)O)ccc1OC)C(=O)NCc1ccccc1` [Compound 1-96, [2′-(3-Benzyl-1-ethyl-ureidomethyl)-6-methoxy-4′-trifluoromethyl-biphenyl-3-yl]-acetic acid] was 4.52 to 6.00; that for `CCN(Cc1cc(C(F)(F)F)ccc1-c1cc(CC(=O)O)ccc1Cl)C(=O)OCc1ccccc1` [Compound 1-110, {2′-[(Benzyloxycarbonyl-ethyl-amino)-methyl]-6-chloro-4′-trifluoromethyl-biphenyl-3-yl}-acetic acid] was 4.52 to 6.00.
The same measure for `CCN(Cc1cc(C(F)(F)F)ccc1-c1cc(CC(=O)O)ccc1OC)C(=O)C(C)(C)Oc1ccc(Cl)cc1` [Compound 1-118, [2′-({[2-(4-Chloro-phenoxy)-2-methyl-propionyl]-ethyl-amino}-methyl)-6-methoxy-4′-trifluoromethyl-biphenyl-3-yl]-acetic acid]: 4.52 to 6.00.
`CCOc1ccc(CC(=O)O)cc1-c1ccc(C(F)(F)F)cc1CN(CC)C(=O)OCc1ccccc1` [Compound 1-129, {2′-[(Benzyloxycarbonyl-ethyl-amino)-methyl]-6-ethoxy-4′-trifluoromethyl-biphenyl-3-yl}-acetic acid]: the pIC50 was 4.52 to 6.00.
With `CCN(Cc1cc(C(F)(F)F)ccc1-c1cc(CC(=O)O)ccc1OC)C(=O)NCc1ccc(Cl)c(Cl)c1` [Compound 1-152, {2′-[3-(3,4-Dichloro-benzyl)-1-ethyl-ureidomethyl]-6-methoxy-4′-trifluoromethyl-biphenyl-3-yl}-acetic acid], the pIC50 is 4.52 to 6.00.
The value for `CCN(Cc1cc(NC(C)=O)ccc1-c1cc(CC(=O)O)ccc1OC)C(=O)OCc1ccccc1` [Compound 1-153, {4′-Acetylamino-2′-[(benzyloxycarbonyl-ethyl-amino)-methyl]-6-methoxy-biphenyl-3-yl}-acetic acid] was 4.52 to 6.00; that for `CCN(Cc1cc(NS(C)(=O)=O)ccc1-c1cc(CC(=O)O)ccc1OC)C(=O)OCc1ccccc1` [Compound 1-155, {2′-[(Benzyloxycarbonyl-ethyl-amino)-methyl]-4′-methanesulfonylamino-6-methoxy-biphenyl-3-yl}-acetic acid] was 4.52 to 6.00.
With `CCN(Cc1cc(C(F)(F)F)ccc1-c1cc(CC(=O)O)ccc1OC)C(=O)NCc1cc(Cl)cc(Cl)c1` [Compound 1-165, {2′-[3-(3,5-Dichloro-benzyl)-1-ethyl-ureidomethyl]-6-methoxy-4′-trifluoromethyl-biphenyl-3-yl}-acetic acid], the pIC50 was 4.52 to 6.00.
Turning to `CCN(Cc1cc(C(F)(F)F)ccc1-c1cc(CC(=O)O)ccc1OC)C(=O)NCc1ccc(F)cc1` [Compound 1-176, {2′-[1-Ethyl-3-(4-fluoro-benzyl)-ureidomethyl]-6-methoxy-4′-trifluoromethyl-biphenyl-3-yl}-acetic acid], the pIC50 is 4.52 to 6.00.
The same measure for `CCN(Cc1cc(C(F)(F)F)ccc1-c1cc(CC(=O)O)ccc1OC)C(=O)NCc1cccc(Cl)c1` [Compound 1-177, {2′-[3-(3-Chloro-benzyl)-1-ethyl-ureidomethyl]-6-methoxy-4′-trifluoromethyl-biphenyl-3-yl}-acetic acid]: 4.52 to 6.00; for `CCN(Cc1cc(C(F)(F)F)ccc1-c1cc(CC(=O)O)ccc1OC)C(=O)NCc1cc(F)cc(F)c1` [Compound 1-178, {2′-[3-(3,5-Difluoro-benzyl)-1-ethyl-ureidomethyl]-6-methoxy-4′-trifluoromethyl-biphenyl-3-yl}-acetic acid]: 4.52 to 6.00; for `CCN(Cc1cc(C(F)(F)F)ccc1-c1cc(CC(=O)O)ccc1OC)C(=O)N[C@H](C)c1ccc(Cl)cc1` [Compound 1-179, (2′-{3-[(R)-1-(4-Chloro-phenyl)-ethyl]-1-ethyl-ureidomethyl}-6-methoxy-4′-trifluoromethyl-biphenyl-3-yl)-acetic acid]: 4.52 to 6.00.
Turning to `CCN(Cc1cc(C(F)(F)F)ccc1-c1cc(CC(=O)O)ccc1OC)C(=O)N[C@@H](C)c1ccc(Cl)cc1` [Compound 1-180, (2′-{3-[(S)-1-(4-Chloro-phenyl)-ethyl]-1-ethyl-ureidomethyl}-6-methoxy-4′-trifluoromethyl-biphenyl-3-yl)-acetic acid], the pIC50 is 4.52 to 6.00.
The same measure for `CCNC(=O)N(CC)Cc1cc(C(F)(F)F)ccc1-c1cc(CC(=O)O)ccc1OC` [Compound 1-181, [2′-(1,3-Diethyl-ureidomethyl)-6-methoxy-4′-trifluoromethyl-biphenyl-3-yl]-acetic acid]: 4.52 to 6.00; for `CCN(Cc1cc(F)ccc1-c1cc(CC(=O)O)ccc1OC)C(=O)OCc1ccccc1` [Compound 1-183, {2′-[(Benzyloxycarbonyl-ethyl-amino)-methyl]-4′-fluoro-6-methoxy-biphenyl-3-yl}-acetic acid]: 4.52 to 6.00.
Regarding `CCN(Cc1cc(F)ccc1-c1cc(CC(=O)O)ccc1OC)C(C)=O` [Compound 1-184, {2′-[(Acetyl-ethyl-amino)-methyl]-4′-fluoro-6-methoxy-biphenyl-3-yl}-acetic acid], the pIC50 was 4.52 to 6.00.
The value for `CCN(Cc1cc(F)ccc1-c1cc(CC(=O)O)ccc1OC)C(=O)NCc1ccc(Cl)cc1` [Compound 1-185, {2′-[3-(4-Chloro-benzyl)-1-ethyl-ureidomethyl]-4′-fluoro-6-methoxy-biphenyl-3-yl}-acetic acid] was 4.52 to 6.00.
Consider `CCN(Cc1cc(F)ccc1-c1cc(CC(=O)O)ccc1OC)C(=O)C1CC1` [Compound 1-186, {2′-[(Cyclopropanecarbonyl-ethyl-amino)-methyl]-4′-fluoro-6-methoxy-biphenyl-3-yl}-acetic acid], for which the pIC50 is 4.52 to 6.00.
The value for `CCN(Cc1cc(F)ccc1-c1cc(CC(=O)O)ccc1OC)C(=O)NCc1ccccc1` [Compound 1-187, [2′-(3-Benzyl-1-ethyl-ureidomethyl)-4′-fluoro-6-methoxy-biphenyl-3-yl]-acetic acid] was 4.52 to 6.00.
